In patent publication US20050020576A1, “Kappa agonist compounds and pharmaceutical formulations thereof” (priority 1996, published 2005):
“And” between values parts separate entries of the source, which are not always exact repeats. Identical values can stand only once.

Legend:
[1] = target: T1, cloned human kappa receptor (Homo sapiens, UniProt P41145); assay: [3H]U69593 (agonist) binding to the cloned human kappa receptor; conditions: Ki, nM 3H-U-69,593
[2] = target: T1, cloned human kappa receptor; assay: biochemical; assay type: binding
[3] = system: formalin-induced flinching; assay: animal or person; assay type: in vivo, male Sprague-Dawley rats; conditions: rat, in vivo

T1 sequence (P41145 whole entry): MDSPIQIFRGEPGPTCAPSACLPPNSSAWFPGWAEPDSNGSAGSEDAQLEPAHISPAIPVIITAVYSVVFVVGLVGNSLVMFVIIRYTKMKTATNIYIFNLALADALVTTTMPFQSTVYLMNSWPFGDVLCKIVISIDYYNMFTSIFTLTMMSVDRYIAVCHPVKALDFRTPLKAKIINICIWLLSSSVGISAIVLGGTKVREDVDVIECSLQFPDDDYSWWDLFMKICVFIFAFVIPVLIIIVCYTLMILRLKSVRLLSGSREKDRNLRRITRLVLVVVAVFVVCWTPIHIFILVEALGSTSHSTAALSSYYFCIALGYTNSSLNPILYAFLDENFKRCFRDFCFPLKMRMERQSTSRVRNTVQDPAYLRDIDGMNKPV

Structure (SMILES) | melting point | Ki [1] | Ki ([2]; Ki, nM 3H-Diprenorphin) | Late Phase Formalin A50 (mg); i.paw [3] | inhibition at 1 µM ([2]; read-out: 3H-Diprenorphin, % @ 1 uM) | Late Phase Formalin, % @ 300; i.paw [3]
CS(=O)(=O)N1CCN(C(=O)Cc2ccc(Cl)c(Cl)c2)[C@H](CN2CCCC2)C1.Cl [(R-3a), (R)-4-Methanesulfonyl-1-[(3,4-dichlorophenyl)acetyl]-2-[(1-pyrrolidinyl)methyl]-piperazine hydrochloride] | 130 to 132 °C | 0.19 nM and 0.5 nM | 0.2 nM and 1.3 nM | 14 (5.6-29) mg |  | 
Cl.O=CN1CCN(C(=O)Cc2ccc(Cl)c(Cl)c2)[C@H](CN2CCCC2)C1 [(R-3j), (R)-4-[(3,4-Dichlorophenyl)acetyl]-3-[(1-pyrrolidinyl)methyl]-1-piperazinecarboxaldehyde hydrochloride] | 126 °C (dec.) | 0.4 nM |  |  | 96% | 65% @ 300
